Data as given in ChEMBL document CHEMBL1153710, “Synthesis, stereochemistry and antimicrobial studies of novel oxime ethers of aza/diazabicycles” (2009).
Values after ≈ are worked out from the molar mass of the structure shown.

Key:
[1] = system: Klebsiella pneumoniae; assay: Antibacterial activity against Klebsiella pneumoniae by twofold serial dilution method; assay type: functional
[2] = system: Candida; assay: Antifungal activity against Candida 51 by twofold serial dilution method; assay type: functional
[3] = system: Staphylococcus aureus; assay: Antibacterial activity against Staphylococcus aureus by twofold serial dilution method; assay type: functional
[4] = system: Salmonella enterica; assay: Antibacterial activity against Salmonella typhi by twofold serial dilution method; assay type: functional, Salmonella enterica subsp. enterica serovar Typhi
[5] = system: Candida albicans; assay: Antifungal activity against Candida albicans by twofold serial dilution method; assay type: functional
[6] = system: Escherichia coli; assay: Antibacterial activity against Escherichia coli by twofold serial dilution method; assay type: functional
[7] = system: Rhizopus; assay: Antifungal activity against Rhizopus sp. by twofold serial dilution method; assay type: functional
[8] = system: Aspergillus flavus; assay: Antifungal activity against Aspergillus flavus by twofold serial dilution method; assay type: functional
[9] = system: Aspergillus niger; assay: Antifungal activity against Aspergillus niger by twofold serial dilution method; assay type: functional
[10] = system: Pseudomonas aeruginosa; assay: Antibacterial activity against Pseudomonas aeruginosa by twofold serial dilution method; assay type: functional

Structure (SMILES): c1ccc(CON=C2C3CCCC2C(c2ccccc2)NC3c2ccccc2)cc1 (stereo not given)
- MIC [1]: > 200 µg/mL
- MIC [2]: 200 µg/mL (≈ 504 µM)
- MIC [3]: > 200 µg/mL
- MIC [4]: 200 µg/mL (≈ 504 µM)
- MIC [5]: 100 µg/mL (≈ 252 µM)
- MIC [6]: 100 µg/mL (≈ 252 µM)
- MIC [7]: > 200 µg/mL
- MIC [8]: 200 µg/mL (≈ 504 µM)
- MIC [9]: > 200 µg/mL
- MIC [10]: 200 µg/mL (≈ 504 µM)

Structure (SMILES): CN1C(c2ccc(Cl)cc2)C2CCCC(C2=NOCc2ccccc2)C1c1ccc(Cl)cc1 (stereo not given)
- MIC [1]: 50 µg/mL (≈ 104 µM)
- MIC [2]: 12.5 µg/mL (≈ 26.1 µM)
- MIC [3]: 12.5 µg/mL (≈ 26.1 µM)
- MIC [4]: 25 µg/mL (≈ 52.1 µM)
- MIC [5]: 25 µg/mL (≈ 52.1 µM)
- MIC [6]: 50 µg/mL (≈ 104 µM)
- MIC [7]: 12.5 µg/mL (≈ 26.1 µM)
- MIC [8]: 100 µg/mL (≈ 209 µM)
- MIC [9]: 12.5 µg/mL (≈ 26.1 µM)
- MIC [10]: 12.5 µg/mL (≈ 26.1 µM)

Structure (SMILES): Cc1ccc(C2NC(c3ccc(C)cc3)C3C(=NOCc4ccccc4)C2C(c2ccc(C)cc2)NC3c2ccc(C)cc2)cc1 (stereo not given)
- MIC [1]: 100 µg/mL (≈ 165 µM)
- MIC [2]: 50 µg/mL (≈ 82.5 µM)
- MIC [3]: 25 µg/mL (≈ 41.3 µM)
- MIC [5]: 25 µg/mL (≈ 41.3 µM)
- MIC [6]: 25 µg/mL (≈ 41.3 µM)
- MIC [7]: 50 µg/mL (≈ 82.5 µM)
- MIC [8]: 25 µg/mL (≈ 41.3 µM)
- MIC [9]: 50 µg/mL (≈ 82.5 µM)
- MIC [10]: 6.25 µg/mL (≈ 10.3 µM)

Structure (SMILES): O=C(O)c1cn(C2CC2)c2cc(N3CCNCC3)c(F)cc2c1=O [CIPROFLOXACIN]
- MIC [4]: 50 µg/mL (≈ 151 µM)
- MIC [6]: 25 µg/mL (≈ 75.4 µM)

Structure (SMILES): Cc1ccc(C2C3CCCC(C3=NOCc3ccccc3)C(c3ccc(C)cc3)N2C)cc1 (stereo not given)
- MIC [1]: 100 µg/mL (≈ 228 µM)
- MIC [2]: 50 µg/mL (≈ 114 µM)
- MIC [3]: 25 µg/mL (≈ 57 µM)
- MIC [4]: 50 µg/mL (≈ 114 µM)
- MIC [5]: 50 µg/mL (≈ 114 µM)
- MIC [6]: 100 µg/mL (≈ 228 µM)
- MIC [7]: 50 µg/mL (≈ 114 µM)
- MIC [8]: 25 µg/mL (≈ 57 µM)
- MIC [9]: 100 µg/mL (≈ 228 µM)
- MIC [10]: 25 µg/mL (≈ 57 µM)

Structure (SMILES): COc1ccc(C2C3CCCC(C3=NOCc3ccccc3)C(c3ccc(OC)cc3)N2C)cc1 (stereo not given)
- MIC [1]: 100 µg/mL (≈ 212 µM)
- MIC [2]: 50 µg/mL (≈ 106 µM)
- MIC [3]: 50 µg/mL (≈ 106 µM)
- MIC [4]: 50 µg/mL (≈ 106 µM)
- MIC [5]: 25 µg/mL (≈ 53.1 µM)
- MIC [6]: 25 µg/mL (≈ 53.1 µM)
- MIC [7]: 50 µg/mL (≈ 106 µM)
- MIC [8]: 100 µg/mL (≈ 212 µM)
- MIC [9]: 25 µg/mL (≈ 53.1 µM)
- MIC [10]: 25 µg/mL (≈ 53.1 µM)

Structure (SMILES): Cc1ccc(C2NC(c3ccc(C)cc3)C3CCCC2C3=NOCc2ccccc2)cc1 (stereo not given)
- MIC [1]: 200 µg/mL (≈ 471 µM)
- MIC [2]: 100 µg/mL (≈ 236 µM)
- MIC [3]: 25 µg/mL (≈ 58.9 µM)
- MIC [4]: 100 µg/mL (≈ 236 µM)
- MIC [5]: 50 µg/mL (≈ 118 µM)
- MIC [6]: 100 µg/mL (≈ 236 µM)
- MIC [7]: 25 µg/mL (≈ 58.9 µM)
- MIC [8]: 100 µg/mL (≈ 236 µM)
- MIC [9]: 100 µg/mL (≈ 236 µM)
- MIC [10]: 25 µg/mL (≈ 58.9 µM)

Structure (SMILES): CN1C(c2ccc(F)cc2)C2CCCC(C2=NOCc2ccccc2)C1c1ccc(F)cc1 (stereo not given)
- MIC [1]: 25 µg/mL (≈ 56 µM)
- MIC [2]: 25 µg/mL (≈ 56 µM)
- MIC [3]: 50 µg/mL (≈ 112 µM)
- MIC [4]: 25 µg/mL (≈ 56 µM)
- MIC [5]: 12.5 µg/mL (≈ 28 µM)
- MIC [6]: 12.5 µg/mL (≈ 28 µM)
- MIC [7]: 25 µg/mL (≈ 56 µM)
- MIC [8]: 50 µg/mL (≈ 112 µM)
- MIC [9]: 25 µg/mL (≈ 56 µM)
- MIC [10]: 12.5 µg/mL (≈ 28 µM)

Structure (SMILES): Clc1ccccc1C1NC(c2ccccc2Cl)C2CCCC1C2=NOCc1ccccc1 (stereo not given)
- MIC [1]: 50 µg/mL (≈ 107 µM)
- MIC [2]: 6.25 µg/mL (≈ 13.4 µM)
- MIC [3]: 12.5 µg/mL (≈ 26.9 µM)
- MIC [4]: 50 µg/mL (≈ 107 µM)
- MIC [5]: 12.5 µg/mL (≈ 26.9 µM)
- MIC [6]: 12.5 µg/mL (≈ 26.9 µM)
- MIC [7]: 50 µg/mL (≈ 107 µM)
- MIC [8]: 12.5 µg/mL (≈ 26.9 µM)
- MIC [9]: 50 µg/mL (≈ 107 µM)
- MIC [10]: 6.25 µg/mL (≈ 13.4 µM)

Structure (SMILES): Fc1cccc(C2NC(c3cccc(F)c3)C3C(=NOCc4ccccc4)C2C(c2cccc(F)c2)NC3c2cccc(F)c2)c1 (stereo not given)
- MIC [1]: 50 µg/mL (≈ 80.4 µM)
- MIC [2]: 50 µg/mL (≈ 80.4 µM)
- MIC [3]: 12.5 µg/mL (≈ 20.1 µM)
- MIC [5]: 25 µg/mL (≈ 40.2 µM)
- MIC [6]: 25 µg/mL (≈ 40.2 µM)
- MIC [7]: 50 µg/mL (≈ 80.4 µM)
- MIC [8]: 25 µg/mL (≈ 40.2 µM)
- MIC [9]: 50 µg/mL (≈ 80.4 µM)
- MIC [10]: 12.5 µg/mL (≈ 20.1 µM)
